What is called IC50 is the midpoint of a concentration-inhibition curve.

Data on one molecule can be found in ChEMBL document CHEMBL3886176, “TSH receptor antagonizing tetrahydroquinoline compounds” (2015).

The target of the test is Thyrotropin receptor (Homo sapiens, UniProt P16473). Format: functional, cell-based, CHO.
Chain of Thyrotropin receptor (P16473 whole entry): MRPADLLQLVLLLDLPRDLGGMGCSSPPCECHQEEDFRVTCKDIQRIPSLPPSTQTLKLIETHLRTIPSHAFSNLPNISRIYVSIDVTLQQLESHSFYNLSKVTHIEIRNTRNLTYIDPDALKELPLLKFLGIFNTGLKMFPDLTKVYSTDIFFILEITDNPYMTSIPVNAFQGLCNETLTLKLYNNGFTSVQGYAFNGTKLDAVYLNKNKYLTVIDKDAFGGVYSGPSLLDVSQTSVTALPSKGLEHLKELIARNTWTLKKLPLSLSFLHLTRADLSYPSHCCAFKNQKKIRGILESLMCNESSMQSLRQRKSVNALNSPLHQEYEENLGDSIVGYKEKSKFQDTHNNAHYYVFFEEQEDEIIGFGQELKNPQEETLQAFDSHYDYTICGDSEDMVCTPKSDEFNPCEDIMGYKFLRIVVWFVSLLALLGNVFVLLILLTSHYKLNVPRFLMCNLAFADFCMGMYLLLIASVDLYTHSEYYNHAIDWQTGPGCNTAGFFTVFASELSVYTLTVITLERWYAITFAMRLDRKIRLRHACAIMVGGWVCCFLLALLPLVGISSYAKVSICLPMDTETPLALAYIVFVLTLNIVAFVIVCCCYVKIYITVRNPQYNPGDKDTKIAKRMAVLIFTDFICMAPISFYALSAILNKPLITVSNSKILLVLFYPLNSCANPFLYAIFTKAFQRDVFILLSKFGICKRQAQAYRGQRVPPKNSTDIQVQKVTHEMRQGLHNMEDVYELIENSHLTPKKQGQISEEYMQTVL

With `CC(=O)N1CCC(C)(c2ccccc2)c2cc(NC(=O)c3ccc(Br)s3)ccc21` (stereo unspecified), the IC50 is below 100 nM.
